Laboratory results as given in ChEMBL document CHEMBL3621039, “Synthesis of alkylsulfonyl and substituted benzenesulfonyl curcumin mimics as dual antagonist of L-type Ca(2+) channel and endothelin A/B2 receptor” (Bioorg Med Chem, 2015).

Legend:
Oryctolagus cuniculus [1] = species on record: Oryctolagus cuniculus; test: Antagonist activity against L-type calcium channel in New Zealand white rabbit basilar artery assessed as vasodilation by measuring effect on 50 mM K+-stimulated depolarization-induced constriction at 10 uM; assay type: tissue-based; parameters: scale not given: the % may be the effect or the level left
Oryctolagus cuniculus [2] = species on record: Oryctolagus cuniculus; test: Antagonist activity against endothelin A/B2 receptor in New Zealand white rabbit basilar artery assessed as vasodilation by measuring effect on endothelin-1-induced constriction at 10 uM; assay type: tissue-based; parameters: scale not given: the % may be the effect or the level left
[3] = Antagonist activity against endothelin A/B2 receptor in New Zealand white rabbit basilar artery assessed as vasodilation by measuring effect on endothelin-1-induced constriction; assay type: tissue-based, Oryctolagus cuniculus
[4] = Antagonist activity against L-type calcium channel in New Zealand white rabbit basilar artery assessed as vasodilation by measuring effect on 50 mM K+-stimulated depolarization-induced constriction; assay type: tissue-based, Oryctolagus cuniculus

| Activity (Oryctolagus cuniculus [2]) [%] | EC50 [3] [µM] | EC50 [4] [µM] | Structure (SMILES) | Activity (Oryctolagus cuniculus [1]) [%] |
| --- | --- | --- | --- | --- |
| 83.4 | 8.8 |  | COc1cc(/C=C/C(=O)c2cccc(NS(=O)(=O)c3ccc(Cl)cc3Cl)c2)ccc1O | 4.2 |
| 46.1 |  |  | COc1cc(/C=C/C(=O)c2cccc(NS(=O)(=O)c3ccc(C(F)(F)F)cc3)c2)ccc1O | 65.8 |
| 36.5 |  |  | COc1cc(/C=C/C(=O)c2cccc(NS(=O)(=O)c3cccc(C(F)(F)F)c3)c2)ccc1O | 52.3 |
| 19.7 |  |  | CCS(=O)(=O)Nc1cccc(C(=O)/C=C/c2ccc(O)c(OC)c2)c1 | 55.3 |
| 41.8 |  |  | COc1cc(/C=C/C(=O)c2cccc(NS(=O)(=O)c3ccc(Cl)c(Cl)c3)c2)ccc1O | 30.2 |
| 30.8 |  |  | CCCS(=O)(=O)Nc1cccc(C(=O)/C=C/c2ccc(O)c(OC)c2)c1 | 42.3 |
| 30.4 |  |  | COc1cc(/C=C/C(=O)c2cccc(NS(=O)(=O)c3cc(Cl)ccc3Cl)c2)ccc1O | 53.4 |
| 55.9 |  |  | COc1cc(/C=C/C(=O)c2cccc(NS(=O)(=O)c3cc(Cl)cc(Cl)c3)c2)ccc1O | 37.3 |
| 68.7 |  |  | COc1cc(/C=C/C(=O)c2cccc(NS(=O)(=O)c3ccc(C(C)=O)cc3)c2)ccc1O | 67.9 |
| 75.1 | 6.4 |  | COc1cc(/C=C/C(=O)c2cccc(NS(=O)(=O)c3ccc(F)cc3)c2)ccc1O | 71.8 |
| 99.8 | 1.8 | 2.78 | COc1cc(/C=C/C(=O)c2cccc(NS(=O)(=O)c3c(Cl)cccc3Cl)c2)ccc1O | 99.4 |
| 34.6 |  |  | COc1cc(/C=C/C(=O)c2cccc(NS(=O)(=O)C(F)(F)F)c2)ccc1O | 10.7 |
| 40.2 |  |  | COc1cc(/C=C/C(=O)c2cccc(NS(=O)(=O)c3ccccc3)c2)ccc1O | 50.4 |
| 78.3 | 5.9 | 5.58 | COc1cc(/C=C/C(=O)c2cccc(NS(=O)(=O)c3ccc(Cl)cc3)c2)ccc1O | 93.4 |
| 99.6 | 2.7 | 3.67 | COc1cc(/C=C/C(=O)c2cccc(NS(=O)(=O)c3ccc(C)cc3)c2)ccc1O | 98.7 |
| 31.2 |  |  | COc1cc(/C=C/C(=O)c2cccc(NS(=O)(=O)C(C)C)c2)ccc1O | 20.5 |
| 56.8 |  |  | COc1ccc(S(=O)(=O)Nc2cccc(C(=O)/C=C/c3ccc(O)c(OC)c3)c2)cc1 | 26.4 |
| 98.9 | 3.9 |  | COc1cc(/C=C/C(=O)c2cccc(NS(=O)(=O)c3ccc([N+](=O)[O-])cc3)c2)ccc1O | 70.7 |
| 39.1 |  |  | COc1cc(/C=C/C(=O)c2cccc(NS(=O)(=O)c3cccs3)c2)ccc1O | 32.4 |
| 8.5 | 48.5 | 7.48 | COc1cc(/C=C/C(=O)CC(=O)/C=C/c2ccc(O)c(OC)c2)ccc1O [CURCUMIN] | 58.4 |
| 22.3 |  |  | COc1cc(/C=C/C(=O)c2cccc(NS(C)(=O)=O)c2)ccc1O | 4.2 |
| 81.4 | 6.1 |  | COc1cc(/C=C/C(=O)c2cccc(NS(=O)(=O)c3ccc(OC(F)(F)F)cc3)c2)ccc1O | 76.7 |
